Experiment [1] concerns the target T1, DYRK1A (Homo sapiens, UniProt Q13627).
T1 construct: kinase domain, residues 127–485
Kind of experiment: biochemical. Also on record: nanoDSF thermal shift, Prometheus NT.48, 5 uM protein, ligand-induced melting temperature change versus buffer or DMSO control. The conditions noted are these: for ΔTm at 1 µM / ΔTm at 10 µM / ΔTm at 100 µM: read-out: ΔTm to control (°C); for ΔTm to control (°C): binder. The method, then: (§1) Nano-differential scanning fluorimetry measurements were performed for the determination of thermal protein stability using a Prometheus NT.48 (NanoTemper) device operating at the two wavelengths λ = 330 and 350 nm. […] The thermal stability was monitored from 20 to 70 °C at a heating rate of 1.5 °C/min using the PR.ThermControl software. […] Kinases were immobilized to the chip surface by amine coupling. […] Dissociation constants were determined based on fits applying a 1:1 interaction model. b Thermal protein stability measurements were performed using the NanoDSF technique. […] For raw data see Supplementary Table 3. Source data are provided as a Source Data file.

The target in experiment [2] is T2, HIPK3 (Homo sapiens, UniProt Q9H422).
T2 construct: kinase domain, residues 159–562
Kind of experiment: radioactive in vitro kinase assay, His-c-Myc substrate. The format is biochemical.

Experiment [3] has as its target T2, HIPK3. Kind of experiment: ([…] Å) and SPR; kinase assay IC50 […]. The experiment is classed as binding.
Experiment [4] deals with T2, HIPK3. Kind of experiment: biochemical. Further details: nanoDSF thermal shift, Prometheus NT.48, 5 uM protein, ligand-induced melting temperature change versus buffer or DMSO control. To be noted: read-out: ΔTm to control (°C). As for the experimental part:
as §1

Experiment [5] concerns the target T3, HIPK1 (Homo sapiens, UniProt Q86Z02).
T3 construct: residues 154-554
Kind of experiment: biochemical. Further details: nanoDSF thermal shift, Prometheus NT.48, 5 uM protein, ligand-induced melting temperature change versus buffer or DMSO control. The conditions noted are these: read-out: ΔTm to control (°C). As for the experimental part:
as §1

The target of experiment [6] is T4, Cdk4 (Homo sapiens, UniProt P11802).
T4 construct: full-length Cdk4 (residues 1–303) with Cyclin D3 (residues 1–292); with Cyclin D3
Kind of experiment: biochemical. Further details: nanoDSF thermal shift, Prometheus NT.48, 5 uM protein, ligand-induced melting temperature change versus buffer or DMSO control. The conditions noted are these: read-out: ΔTm to control (°C). As for the experimental part:
as §1

For experiment [7], the target named is T5, Cdk9 (Homo sapiens, UniProt P50750).
T5 construct: full-length Cdk9 (residues 1–372) with Cyclin T1 (residues 1–272); with Cyclin T1
Kind of experiment: biochemical. To be noted: read-out: ΔTm to control (°C). Also on record: nanoDSF thermal shift, Prometheus NT.48, 5 uM protein, ligand-induced melting temperature change versus buffer or DMSO control. As for the experimental part:
as §1

Experiment [8] concerns the target T6, HIPK2 (Homo sapiens, UniProt Q9H2X6).
T6 construct: residues 160–563
Kind of experiment: biochemical. Further details: nanoDSF thermal shift, Prometheus NT.48, 5 uM protein, ligand-induced melting temperature change versus buffer or DMSO control. To be noted: read-out: ΔTm to control (°C). The method, then:
as §1

The target of experiment [9] is T6, HIPK2. Kind of experiment: SPR single-cycle kinetics; nanoDSF; kinase assay IC50 […]. The format is binding. On the technique in general: DSF heats the sample and reads unfolding from a dye or from intrinsic fluorescence.
Experiment [10] addresses T3, HIPK1. Kind of experiment: radioactive in vitro kinase assay; nanoDSF shift +[…] °C. The format is biochemical.

pIC50, pKd: −log10 of the molar value. Like-named read-outs stand apart in the source and are kept apart here.

T3 sequence (Q86Z02 154-554): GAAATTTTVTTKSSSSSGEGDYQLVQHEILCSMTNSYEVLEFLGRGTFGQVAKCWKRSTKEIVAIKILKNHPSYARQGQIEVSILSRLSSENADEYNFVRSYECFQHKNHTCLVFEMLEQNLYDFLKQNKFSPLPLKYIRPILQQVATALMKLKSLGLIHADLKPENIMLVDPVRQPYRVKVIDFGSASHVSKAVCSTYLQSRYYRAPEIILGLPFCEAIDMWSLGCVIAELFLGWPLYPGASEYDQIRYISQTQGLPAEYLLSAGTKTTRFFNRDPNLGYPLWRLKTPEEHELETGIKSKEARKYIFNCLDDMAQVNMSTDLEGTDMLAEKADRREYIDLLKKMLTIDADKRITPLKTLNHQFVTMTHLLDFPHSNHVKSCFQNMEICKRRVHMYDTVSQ
T2 sequence (Q9H422 159-562): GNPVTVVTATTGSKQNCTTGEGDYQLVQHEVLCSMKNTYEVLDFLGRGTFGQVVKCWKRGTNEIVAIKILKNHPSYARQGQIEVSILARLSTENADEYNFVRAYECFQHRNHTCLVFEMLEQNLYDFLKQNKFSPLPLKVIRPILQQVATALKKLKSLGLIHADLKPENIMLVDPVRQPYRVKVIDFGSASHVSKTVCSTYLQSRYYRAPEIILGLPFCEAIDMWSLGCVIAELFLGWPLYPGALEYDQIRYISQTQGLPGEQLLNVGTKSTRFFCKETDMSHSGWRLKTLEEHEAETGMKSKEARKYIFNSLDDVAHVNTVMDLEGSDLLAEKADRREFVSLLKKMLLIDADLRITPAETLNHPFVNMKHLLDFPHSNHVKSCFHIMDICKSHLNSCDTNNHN
T6 sequence (Q9H2X6 160-563): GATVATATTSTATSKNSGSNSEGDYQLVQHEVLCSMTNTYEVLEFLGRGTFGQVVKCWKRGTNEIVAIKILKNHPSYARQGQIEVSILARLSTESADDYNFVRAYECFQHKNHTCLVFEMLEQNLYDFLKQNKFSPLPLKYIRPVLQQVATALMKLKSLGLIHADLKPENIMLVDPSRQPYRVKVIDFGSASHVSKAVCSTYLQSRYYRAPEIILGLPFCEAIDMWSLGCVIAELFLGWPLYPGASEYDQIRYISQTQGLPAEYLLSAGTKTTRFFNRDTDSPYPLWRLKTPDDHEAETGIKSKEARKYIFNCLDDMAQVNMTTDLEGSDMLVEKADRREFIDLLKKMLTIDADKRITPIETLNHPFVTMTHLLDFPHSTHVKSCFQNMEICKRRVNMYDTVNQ
T5 sequence (P50750 whole entry, the tested form may be a part): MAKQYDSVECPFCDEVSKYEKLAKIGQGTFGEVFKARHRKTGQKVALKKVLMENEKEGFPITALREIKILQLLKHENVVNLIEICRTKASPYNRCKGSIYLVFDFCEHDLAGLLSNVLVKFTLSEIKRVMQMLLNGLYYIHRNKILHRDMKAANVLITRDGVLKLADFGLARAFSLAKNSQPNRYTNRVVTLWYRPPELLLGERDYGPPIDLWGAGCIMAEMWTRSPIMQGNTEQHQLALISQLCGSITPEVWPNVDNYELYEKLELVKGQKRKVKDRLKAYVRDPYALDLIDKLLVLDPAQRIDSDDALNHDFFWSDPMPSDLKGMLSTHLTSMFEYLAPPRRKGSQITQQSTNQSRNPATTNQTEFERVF
T5 sequence (O60563 1-272 partner): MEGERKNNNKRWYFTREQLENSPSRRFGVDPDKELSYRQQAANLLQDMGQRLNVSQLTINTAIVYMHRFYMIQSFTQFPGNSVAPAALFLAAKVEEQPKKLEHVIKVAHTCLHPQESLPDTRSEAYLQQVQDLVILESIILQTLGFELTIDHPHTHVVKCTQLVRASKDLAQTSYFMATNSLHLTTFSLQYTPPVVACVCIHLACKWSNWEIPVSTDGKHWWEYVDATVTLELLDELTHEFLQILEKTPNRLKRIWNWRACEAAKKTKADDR
T4 sequence (P11802 whole entry, the tested form may be a part): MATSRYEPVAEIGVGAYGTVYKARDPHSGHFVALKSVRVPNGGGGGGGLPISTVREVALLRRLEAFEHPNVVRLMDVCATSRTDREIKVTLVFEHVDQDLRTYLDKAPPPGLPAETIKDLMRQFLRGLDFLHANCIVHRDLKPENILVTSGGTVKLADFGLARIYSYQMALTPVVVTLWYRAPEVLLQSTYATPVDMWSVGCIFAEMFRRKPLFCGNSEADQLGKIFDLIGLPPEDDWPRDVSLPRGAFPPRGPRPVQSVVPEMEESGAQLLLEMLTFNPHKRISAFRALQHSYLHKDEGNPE
T4 sequence (P30281 whole entry partner, the tested form may be a part): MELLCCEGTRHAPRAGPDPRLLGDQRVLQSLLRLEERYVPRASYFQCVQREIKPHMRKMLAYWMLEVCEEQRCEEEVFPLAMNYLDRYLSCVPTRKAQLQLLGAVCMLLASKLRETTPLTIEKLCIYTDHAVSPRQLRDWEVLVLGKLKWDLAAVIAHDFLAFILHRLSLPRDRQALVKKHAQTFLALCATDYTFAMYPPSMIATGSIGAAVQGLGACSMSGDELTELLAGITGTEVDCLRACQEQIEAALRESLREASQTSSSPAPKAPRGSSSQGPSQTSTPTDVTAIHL

Consider `Nc1ncnc2c1ncn2[C@@H]1O[C@H](COP(=O)(O)OP(=O)(O)O)[C@@H](O)[C@H]1O` [ADP], for which, in experiment [1], the ΔTm at 1 µM is -0.1 °C, the ΔTm at 10 µM was found to be 0 °C and the ΔTm at 100 µM was -0.1 °C.
Turning to `Nc1ncnc2c1ncn2[C@@H]1O[C@H](COP(=O)(O)OP(=O)(O)OP(=O)(O)O)[C@@H](O)[C@H]1O` [ATP], the “ΔTm to control (°C)” value is -0.2 °C in [1] (1 uM), “+0.1 °C” in experiment [1] (10 uM) and 0.0 °C in experiment [1] (100 uM).
On to `O=C1NC(=O)/C(=C/c2ccc3nccc(-c4ccncc4)c3c2)S1` [GSK1059615], for which the negative logarithm of the IC50 (pIC50) in experiment [2] was 5.97.
Regarding `CN(C)C[C@H]1CC[C@H](N2C(=O)NCc3cnc4ccc(-c5cc(Cl)c(O)c(Cl)c5)cc4c32)CC1` [HTH-01-091], the pIC50 in experiment [2] (read-out: IC50) was 5.80.
In the case of `CCN1CCN(Cc2ccc(Nc3ncc(F)c(-c4cc(F)c5nc(C)n(C(C)C)c5c4)n3)nc2)CC1` [abemaciclib], the pKd in experiment [3] and in experiment [9] was 9.10 in each case. The ΔTm at 1 µM in experiment [4] worked out at 0.2 °C; in experiment [5], 0.4 °C; in [6] it was 4.1 °C; in [7], 0.6 °C; in [1], 0.6 °C; in [8] it was 1.5 °C. Besides, the ΔTm at 10 µM was 5.3 °C in experiment [4]; 6.4 °C in experiment [5]; 2.4 °C in experiment [7]; 3.1 °C in [1]; 4.7 °C in [8]. Moreover, the shift in melting temperature (ΔTm) at 100 µM was found to be 7.4 °C in experiment [4]; 8.7 °C in [5]; 7.9 °C in experiment [6]; 5.2 °C in experiment [1]; 7.2 °C in experiment [8]. The pIC50 in experiment [10] is 5.34.

Usually ΔTm stands for the change in melting temperature against a reference sample. As a reminder, the pIC50 is the negative decadic logarithm of the IC50, by convention in mol/L. What is called pKd is −log10 of the Kd, conventionally taken in molar units. Low readings indicate a high Kd, high ones a low Kd.

The record behind these values is paper PMC8595372 (Nature Communications, 2021).
